Reference: patent publication US11613556B2, “Oxysterols and methods of use thereof” (Sage Therapeutics, Inc., priority 2016, dated 2023)
Where two headings read alike, the source gives them in different places.

What was measured:
Assay type in all cases: cell-based
[1] = target: GluN2B glutamate receptors expressed in mammalian cells (Homo sapiens (Human), UniProt Q05586+Q13224); assay: Whole-cell patch clamp of mammalian cells (Ionworks Barracuda), positive allosteric modulation, GluN2B; settings: for Emax: read-out: GluN2B PCA EMax (%)
GluN2B glutamate receptors expressed in mammalian cells, sequence (Q13224 27-1484, other chains not shown): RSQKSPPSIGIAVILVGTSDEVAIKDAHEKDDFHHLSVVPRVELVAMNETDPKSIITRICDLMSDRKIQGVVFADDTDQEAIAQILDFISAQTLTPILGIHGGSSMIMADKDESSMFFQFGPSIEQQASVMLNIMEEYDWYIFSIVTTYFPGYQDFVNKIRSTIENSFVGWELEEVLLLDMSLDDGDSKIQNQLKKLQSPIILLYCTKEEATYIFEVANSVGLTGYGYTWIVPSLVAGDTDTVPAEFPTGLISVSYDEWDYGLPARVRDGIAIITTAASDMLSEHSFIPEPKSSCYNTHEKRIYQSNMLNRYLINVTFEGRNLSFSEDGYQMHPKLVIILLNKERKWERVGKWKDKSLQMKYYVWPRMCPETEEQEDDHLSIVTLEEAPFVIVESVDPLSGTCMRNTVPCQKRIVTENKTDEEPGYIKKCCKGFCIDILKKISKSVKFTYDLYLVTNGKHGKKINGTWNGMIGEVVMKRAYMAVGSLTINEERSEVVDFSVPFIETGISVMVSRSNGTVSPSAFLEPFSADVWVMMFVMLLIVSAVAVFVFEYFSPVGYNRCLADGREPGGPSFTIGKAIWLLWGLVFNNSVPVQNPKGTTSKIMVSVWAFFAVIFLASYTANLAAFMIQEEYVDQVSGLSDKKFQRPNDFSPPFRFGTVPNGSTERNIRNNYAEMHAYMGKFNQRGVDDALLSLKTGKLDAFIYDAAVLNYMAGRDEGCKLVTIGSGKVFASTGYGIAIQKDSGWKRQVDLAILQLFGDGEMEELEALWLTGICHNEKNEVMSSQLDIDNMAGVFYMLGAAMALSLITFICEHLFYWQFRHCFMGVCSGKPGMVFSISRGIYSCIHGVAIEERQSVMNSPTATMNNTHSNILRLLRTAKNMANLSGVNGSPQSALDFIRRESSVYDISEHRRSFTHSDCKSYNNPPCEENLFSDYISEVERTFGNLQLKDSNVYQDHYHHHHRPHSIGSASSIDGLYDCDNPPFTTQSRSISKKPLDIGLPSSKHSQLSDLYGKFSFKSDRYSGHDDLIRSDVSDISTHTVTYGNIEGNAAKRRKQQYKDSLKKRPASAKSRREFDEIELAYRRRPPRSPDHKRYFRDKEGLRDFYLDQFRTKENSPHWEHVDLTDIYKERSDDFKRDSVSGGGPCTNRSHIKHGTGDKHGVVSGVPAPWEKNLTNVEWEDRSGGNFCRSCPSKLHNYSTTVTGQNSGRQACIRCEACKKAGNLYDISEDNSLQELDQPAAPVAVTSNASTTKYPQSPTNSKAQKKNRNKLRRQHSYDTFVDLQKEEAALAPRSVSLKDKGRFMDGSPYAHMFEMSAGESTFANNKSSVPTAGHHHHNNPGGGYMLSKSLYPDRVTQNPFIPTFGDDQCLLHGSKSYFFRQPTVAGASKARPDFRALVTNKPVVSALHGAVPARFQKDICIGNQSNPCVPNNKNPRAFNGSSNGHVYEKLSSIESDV
Protocol: (§1) NMDA potentiation in mammalian cells which expressed NMDA receptors was assessed using the automatic patch-clamp system can be used determine the NAM activity of compounds as described below. An whole cell patch-clamp system can be used determine the PAM activity of compounds as described below.
(§2) The measurements were performed using Ion Works Barracuda platform following this procedure:
(§3) Electrophysiological Procedures: • a) Intracellular solution (mM): 50 mM CsCl, 90 mM CsF, 2 mM MgCl2, 5 mM EGTA, 10 mM HEPES. Adjust to pH 7.2 with CsOH. • b) Extracellular solution, HB-PS (composition in mM): NaCl, 137; KCl, 1.0; CaCl2, 5; HEPES, 10; Glucose, 10; pH adjusted to 7.4 with NaOH (refrigerated until use). • c) Holding potential: −70 mV, potential during agonist/PAM application: −40 mV.
(§4) Recording Procedure: • a) Extracellular buffer will be loaded into the PPC plate wells (11 μL per well). Cell suspension will be pipetted into the wells (9 μL per well) of the PPC planar electrode. • b) Whole-cell recording configuration will be established via patch perforation with membrane currents recorded by on-board patch clamp amplifiers. • c) Two recordings (scans) will be performed. First, during pre-application of test article alone (duration of pre-application—5 min) and second, during test articles and agonist (EC20 L-glutamate and 30 μM glycine) co-application to detect positive modulatory effects of the test article.
(§5) Test Article Administration: The first pre-application will consist of the addition of 20 μL of 2× concentrated test article solution and, second, of 20 μL of 1× concentrated test article and agonist at 10 μL/s (2 second total application time).
(§6) Potentiating Effect of Positive Allosteric Modulators (PAM) on the Channel
(§7) The maximal amplitude of the evoked currents are measured and defined as Peak Current Amplitude (PCA).

[2] = target: glutamate-activated channels of the GRIN1/2A subtype stably transfected in HEK 293 cells (Homo sapiens (Human), UniProt Q05586+Q12879); assay: Automated patch-clamp system (QPatch HTX), percent potentiation at 1 μM; settings: HEK293, 1 μM test compound, 300 μM NMDA with 8 μM glycine, HEK 293 GRIN1/2A, read-out: GluN2A PCA % potentiation at 1 μM
glutamate-activated channels of the GRIN1/2A subtype stably transfected in HEK 293 cells, sequence (Q12879 whole entry, looked up, other chains not shown): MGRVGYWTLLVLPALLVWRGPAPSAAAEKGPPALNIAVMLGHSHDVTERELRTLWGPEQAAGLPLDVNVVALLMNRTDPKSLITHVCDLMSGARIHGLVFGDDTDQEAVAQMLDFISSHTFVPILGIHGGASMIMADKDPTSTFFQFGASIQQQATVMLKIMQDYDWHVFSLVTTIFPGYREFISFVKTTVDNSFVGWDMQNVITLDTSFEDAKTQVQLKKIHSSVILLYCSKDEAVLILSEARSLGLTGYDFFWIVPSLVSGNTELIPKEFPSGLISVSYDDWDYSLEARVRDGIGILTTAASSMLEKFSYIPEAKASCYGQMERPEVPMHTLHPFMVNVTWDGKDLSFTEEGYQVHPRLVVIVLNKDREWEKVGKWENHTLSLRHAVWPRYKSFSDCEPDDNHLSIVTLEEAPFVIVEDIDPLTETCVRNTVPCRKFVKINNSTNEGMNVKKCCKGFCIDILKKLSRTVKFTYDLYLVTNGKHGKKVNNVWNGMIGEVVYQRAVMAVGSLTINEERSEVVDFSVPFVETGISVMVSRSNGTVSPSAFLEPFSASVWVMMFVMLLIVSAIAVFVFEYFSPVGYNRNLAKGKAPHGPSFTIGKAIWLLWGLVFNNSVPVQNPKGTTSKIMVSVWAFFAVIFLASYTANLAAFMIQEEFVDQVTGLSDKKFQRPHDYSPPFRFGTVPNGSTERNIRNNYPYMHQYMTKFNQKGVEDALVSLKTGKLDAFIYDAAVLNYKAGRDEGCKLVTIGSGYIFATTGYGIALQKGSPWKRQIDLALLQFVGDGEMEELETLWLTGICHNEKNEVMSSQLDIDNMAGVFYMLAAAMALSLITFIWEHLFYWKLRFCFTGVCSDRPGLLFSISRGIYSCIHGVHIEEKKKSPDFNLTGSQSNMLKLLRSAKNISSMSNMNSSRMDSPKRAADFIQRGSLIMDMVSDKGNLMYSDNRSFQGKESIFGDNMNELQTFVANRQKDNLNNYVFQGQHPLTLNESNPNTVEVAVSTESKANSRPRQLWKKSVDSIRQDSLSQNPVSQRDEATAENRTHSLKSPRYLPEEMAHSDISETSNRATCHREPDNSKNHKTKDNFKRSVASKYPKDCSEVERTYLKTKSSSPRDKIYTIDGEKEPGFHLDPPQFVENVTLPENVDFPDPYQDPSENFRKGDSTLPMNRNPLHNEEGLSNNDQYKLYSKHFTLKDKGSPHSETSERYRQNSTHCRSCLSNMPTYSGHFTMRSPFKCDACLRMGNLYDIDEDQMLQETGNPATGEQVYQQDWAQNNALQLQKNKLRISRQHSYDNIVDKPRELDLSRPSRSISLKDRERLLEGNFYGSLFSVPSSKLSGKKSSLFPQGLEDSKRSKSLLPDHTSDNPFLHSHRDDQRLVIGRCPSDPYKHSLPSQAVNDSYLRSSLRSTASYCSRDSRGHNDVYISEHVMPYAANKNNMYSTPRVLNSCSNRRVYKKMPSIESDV
Protocol: as §1
Automated Patch-Clamp System (OPatch HTX):
In this study, HEK 293 cells stably transfected with glutamate-activated channels of the GRIN1/2A subtype will be used together with submaximal NMDA concentrations (300 μM NMDA, co-application with 8 μM Glycine) to investigate the negative allosteric modulation of the test compounds.
In general, cells will be passaged at a confluence of about 80% to […]. For electrophysiological measurements cells will be harvested at a confluence of about 80% to 90% from sterile culture flasks containing culture complete medium. Cells will be transferred as suspension in PBS to the QPatch 16X or QPatch HTX system to the centrifuge/washer directly.
Standard Laboratory Conditions: Cells will be incubated at 37° C. in a humidified atmosphere with 5% CO2 (rel. humidity about 95%).
Culture media: The cells will be continuously maintained in and passaged in sterile culture flasks containing a 1:1 mixture of Dulbecco's modified eagle medium and nutrient mixture F-12 (D-MEM/F-12 1×, liquid, with L-Glutamine) supplemented with 10% fetal bovine serum, 1% Penicillin/Streptomycin solution, and 50 μM AP-5 blocker.
Antibiotics: The complete medium as indicated above is supplemented with 100 μg/mL hygromycin, 15 μg/mL blasticidin and 1 μg/mL puromycin.
Induction of Expression: 2.5 μg/mL tetracycline is added 24 h before start of experiments.
Dose levels are in terms of test compounds, as supplied. Vehicle will be added to achieve a stock concentration of 10 mM (storage at −10° C. to −30° C.). A further stock solutions of 1.0 mM will be prepared in DMSO. Details of stock solution usage (thawing, dose formulations) will be documented in the raw data. The time period of stock solution usage will be detailed in the report.
Test Compound Concentrations
One test concentration of 1.0 μM will be tested.
All test solutions will be prepared by diluting the stock solutions with either Mg-free bath solution only or Mg-free bath solution containing NMDA (300 μM) and glycine (8.0 μM) shortly prior to the electrophysiological experiments and kept at room temperature (19° C. to 30° C.) when in use. 0.1% DMSO will be used as vehicle.
Frequency of preparation: For each test concentration, fresh solutions of test compounds will be prepared every day.
Stability of dose formulation: All preparation times will be documented in the raw data. Any observations regarding instability of test compounds will be mentioned in the raw data.
Storage of dose formulation: On the day of experimentation dose formulations will be maintained at room temperature (19° C. to 30° C.) when in use.
For preparing the experiments and for formation of the giga-ohm-seal, the following standard bath solution will be used:
Sodium Chloride: 137 mM; Potassium Chloride: 4 mM; Calcium Chloride: 1.8 mM; Magnesium Chloride: 1 mM; HEPES: 10 mM; D-Glucose: 10 mM; Cremophor: 0.02%; pH (NaOH): 7.4
The 1× bath solution will be prepared by diluting 10× bath solution without Glucose and 100× Glucose solution with water at least every 7 days. Both stock solutions have been prepared prior to the experimental start of the present study and stored at 1° C. to 9° C. (10× bath solution) or −10° C. to −30° (100× Glucose solution). The batch number(s) of the bath solution(s) used in the experiments will be documented in the raw data. When in use, the 1× bath solution will be kept at room temperature (19° C. to 30° C.). When not in use, the 1× bath solution will be stored at 1° C. to 9° C.
After the giga-seal was formed the following Mg-free bath solution will be used:
Sodium Chloride: 137 mM; Potassium Chloride: 4 mM; Calcium Chloride; 2.8 mM; HEPES: 10 mM; D-Glucose: 10 mM; Cremophor: 0.02%; pH (NaOH): 7.4 […]

[3] = target: GluN1/GluN2A glutamate receptors (human GRIN1/GRIN2A) expressed in HEK293 cells (Homo sapiens (Human), UniProt Q05586+Q12879); assay: Whole-cell patch clamp of mammalian cells (Ionworks Barracuda), positive allosteric modulation, GluN1/GluN2A; settings: for Emax: read-out: GluN2A PCA EMax (%)
GluN1/GluN2A glutamate receptors (human GRIN1/GRIN2A) expressed in HEK293 cells, sequence (Q12879 whole entry, looked up, other chains not shown): as above
Protocol: as §1, §2, §3, §4, §5, §6, §7

[4] = peak current amplitude, co-application with EC20 L-glutamate and 30 μM glycine, HEK293
[5] = peak current amplitude, co-application with EC20 L-glutamate and 30 μM glycine, read-out: GluN2B PCA EC50
[6] = peak current amplitude, co-application with EC20 L-glutamate and 30 μM glycine

`CC[C@]1(O)CC[C@@]2(C)[C@@H](CC[C@@H]3[C@@H]2CC[C@]2(C)[C@@H]([C@H](C)[C@@H](O)CC4CCC(C)(C)CC4)CC[C@@H]32)C1` [Compound 4, (3S,5S,8R,9S,10S,13S,14S,17R)-17-((2S,3S)-4-(4,4-dimethylcyclohexyl)-3-hydroxybutan-2-yl)-3-ethyl-10,13-dimethylhexadecahydro-1H-cyclopenta[a]phenanthren-3-ol] showed an EC50 [1] of over 1 µM, an Emax [1] of under 100% and an activation at 1 µM [2] of under -40%. For the same molecule, the EC50 ([3]; peak current amplitude, co-application with EC20 L-glutamate and 30 μM glycine, HEK293, read-out: GluN2A PCA EC50) was 0.001 to 0.1 µM and the Emax [3, 4] was under 100%.
`CC[C@]1(O)CC[C@@]2(C)C(=CC[C@H]3[C@@H]4CC[C@H]([C@H](C)[C@H](O)CCC5CC5)[C@@]4(C)CC[C@@H]32)C1` [Compound 6, (3S,8S,9S,10R,13S,14S,17R)-17-((2S,3R)-5-cyclopropyl-3-hydroxypentan-2-yl)-3-ethyl-10,13-dimethyl-2,3,4,7,8,9,10,11,12,13,14,15,16,17-tetradecahydro-1H-cyclopenta[a]phenanthren-3-ol] showed an EC50 [1, 5] of over 1 µM, an Emax [1, 6] of under 100% and an activation at 1 µM [2] of -10 to 10%. For the same molecule, the EC50 [3] was over 1 µM and the Emax [3, 4] was under 100%.
`CC(C)CC[C@H](O)[C@@H](C)[C@H]1CC[C@H]2[C@@H]3CC[C@H]4C[C@@](C)(O)CC[C@]4(C)[C@H]3CC[C@]12C` [Compound 8, (3S,5S,8R,9S,10S,13S,14S,17R)-17-((2S,3S)-3-hydroxy-6-methylheptan-2-yl)-3,10,13-trimethylhexadecahydro-1H-cyclopenta[a]phenanthren-3-ol] gave an EC50 [1, 5] of over 1 µM, an Emax [1, 6] of under 100% and an activation at 1 µM [2] of under -40%. For the same molecule, the EC50 [3] was over 1 µM and the Emax [3, 4] was under 100%.
`CC[C@]1(O)CC[C@@]2(C)C(=CC[C@H]3[C@@H]4CC[C@H]([C@H](C)[C@H](O)CC5CCC(C)(C)CC5)[C@@]4(C)CC[C@@H]32)C1` [Compound 12, (3S,8S,9S,10R,13S,14S,17R)-17-((2S,3R)-4-(4,4-dimethylcyclohexyl)-3-hydroxybutan-2-yl)-3-ethyl-10,13-dimethyl-2,3,4,7,8,9,10,11,12,13,14,15,16,17-tetradecahydro-1H-cyclopenta[a]phenanthren-3-ol] was tested, and the EC50 [1, 5] was over 1 µM, the Emax [1, 6] was under 100% and the activation at 1 µM [2] was -10 to 10%. It also gave an EC50 [3] of over 1 µM and an Emax [3, 4] of under 100%.
In the case of `CC(C)CC[C@@H](O)[C@@H](C)[C@H]1CC[C@H]2[C@@H]3CC[C@H]4C[C@](O)(C(F)(F)F)CC[C@]4(C)[C@H]3CC[C@]12C` [Compound 85, (3S,5S,8R,9S,10S,13S,14S,17R)-17-((2S,3R)-3-hydroxy-6-methylheptan-2-yl)-10,13-dimethyl-3-(trifluoromethyl)hexadecahydro-1H-cyclopenta[a]phenanthren-3-ol], the activation at 1 µM [2] is reported as -10 to 10%.
With `CC[C@]1(O)CC[C@@]2(C)[C@@H](CC[C@@H]3[C@@H]2CC[C@]2(C)[C@@H]([C@H](C)[C@@H](O)C4CCOCC4)CC[C@@H]32)C1` [Compound 86, (3S,5S,8R,9S,10S,13S,14S,17R)-3-ethyl-17-((1S,2S)-1-hydroxy-1-(tetrahydro-2H-pyran-4-yl)propan-2-yl)-10,13-dimethylhexadecahydro-1H-cyclopenta[a]phenanthren-3-ol] the activation at 1 µM [2] was -40 to -10%.
`CC(C)CC[C@@H](O)[C@@H](C)[C@H]1CC[C@H]2[C@@H]3CC[C@H]4C[C@@](C)(O)CC[C@@H]4[C@H]3CC[C@]12C` [Compound 88, (3S,5S,8R,9R,10S,13S,14S,17R)-17-((2S,3R)-3-hydroxy-6-methylheptan-2-yl)-3,13-dimethylhexadecahydro-1H-cyclopenta[a]phenanthren-3-ol] was tested, and the activation at 1 µM [2] was -40 to -10%.
In the case of `CC[C@]1(O)CC[C@@]2(C)[C@@H](CC[C@@H]3[C@@H]2CC[C@]2(C)[C@@H]([C@H](C)[C@H](O)C4CC4)CC[C@@H]32)C1` [Compound 90, (3S,5S,8R,9S,10S,13S,14S,17R)-17-((1R,2S)-1-cyclopropyl-1-hydroxypropan-2-yl)-3-ethyl-10,13-dimethylhexadecahydro-1H-cyclopenta[a]phenanthren-3-ol], the activation at 1 µM [2] is reported as -10 to 10%.
`C[C@H]([C@H](C)O)[C@H]1CC[C@H]2[C@@H]3CC[C@H]4C[C@](O)(C(F)(F)F)CC[C@]4(C)[C@H]3CC[C@]12C` [Compound 91, (3S,5S,8R,9S,10S,13S,14S,17R)-17-((2S,3S)-3-hydroxybutan-2-yl)-10,13-dimethyl-3-(trifluoromethyl)hexadecahydro-1H-cyclopenta[a]phenanthren-3-ol] showed an activation at 1 µM [2] of -40 to -10%.
In the case of `COC[C@]1(O)CC[C@@]2(C)C(=CC[C@H]3[C@@H]4CC[C@H]([C@H](C)[C@@H](O)C(F)(F)F)[C@@]4(C)CC[C@@H]32)C1` [Compound 95, (3S,8S,9S,10R,13S,14S,17R)-3-(methoxymethyl)-10,13-dimethyl-17-((2S,3R)-4,4,4-trifluoro-3-hydroxybutan-2-yl)-2,3,4,7,8,9,10,11,12,13,14,15,16,17-tetradecahydro-1H-cyclopenta[a]phenanthren-3-ol], the activation at 1 µM [2] is reported as under -40%.
For `C[C@@H]([C@H]1CC[C@H]2[C@@H]3CC[C@@H]4C[C@@](C)(O)CC[C@]4(C)[C@H]3CC[C@]12C)[C@H](O)C(F)(F)F` [Compound 97, (3S,5R,8R,9S,10S,13S,14S,17R)-3,10,13-trimethyl-17-((2S,3S)-4,4,4-trifluoro-3-hydroxybutan-2-yl)hexadecahydro-1H-cyclopenta[a]phenanthren-3-ol], the activation at 1 µM [2] was -40 to -10%.
